Patent US20230295201A1 (Gilead Sciences, Inc., priority 2020, published 2023)
Where two headings read alike, the source gives them in different places.

What was measured:
Format in all cases: cell-based
DENV2 replicon = assay: DENV-2 Huh-7 Rep EC50 (replicon luminescence); conditions: read-out: DENV-2 Huh-7 Rep EC50
Summary of the method: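 Huh-7 cells carrying a DENV2 replicon, 5,000 cells/well, were incubated with dosed compounds for 48 h at 37° C. EnduRen live-cell substrate was added 1.5 h before luminescence reading. EC50 came from dose-response against DMSO-only wells.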

RSV strain A2 = assay: RSV HEp-2 EC50 (infectious cytopathic cell protection assay); conditions: HEp-2 cells, RSV A2, 4 days, read-out: RSV HEp-2 EC50
Summary of the method: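 HEp-2 cells mixed with titered RSV A2 at 50,000 cells/ml were added to plates holding 3-fold serial compound dilutions in DMSO, then incubated 4 days at 37° C. Cytoprotection was read as cell viability by CellTiter-Glo luminescence and converted to percent inhibition against 0% and 100% inhibition controls.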

HRV16 = HRV16 HELA EC50 (cytopathic effect in H1-HeLa cells)
Summary of the method: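 H1-HeLa cells seeded one day before, given 3-fold serial compound dilutions in triplicate just prior to infection with pre-titrated virus. Incubated 96 h at 33 °C/5% CO2; protection from cytopathic effect read as viability by CellTiter-Glo luminescence, normalised to infected untreated (0%) and uninfected (100%) controls.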

RSV A2 = assay: RSV NHBE EC50 (RSV A2 antiviral assay in normal human bronchial epithelial cells); conditions: NHBE cells, RSV A2, 4 days, read-out: RSV NHBE EC50
[1] = Dengue virus, DENV2, Huh-7, 48 h, Huh-7 replicon cells, 48 hours
[2] = human respiratory syncytial virus, HEp-2, 96 h
[3] = 96 h, H1-HeLa cells, 33° C., read-out: HRV16 HELA EC50
[4] = human respiratory syncytial virus, NHBE, 96 h
[5] = H1-HeLa cells, 96 h, 33° C.; read-out: HRV16 HELA EC50
[6] = human respiratory syncytial virus, 96 h

| SMILES | EC50 (DENV2 replicon; [1]) [µM] | EC50 (RSV strain A2; [2]) [µM] | EC50 (HRV16; [3]) [µM] | EC50 (RSV A2; [4]) [µM] | EC50 (DENV2 replicon; Huh-7 replicon cells, 48 hours) [µM] | EC50 (RSV strain A2) [µM] | EC50 (HRV16; [5]) [µM] | EC50 (RSV A2) [µM] | EC50 (DENV2 replicon; Dengue virus, DENV2, Huh-7, 48 h) [µM] | EC50 (RSV strain A2; [6]) [µM] | EC50 (RSV A2; [6]) [µM] |
| --- | --- | --- | --- | --- | --- | --- | --- | --- | --- | --- | --- |
| C[C@H](NP(=O)(OC[C@@]1(C#N)O[C@@H](c2ccc3c(N)ncnn23)[C@H](O)[C@@H]1O)Oc1ccccc1)C(=O)OC1CCNCC1 (mixture of isomers) [Example 145, (2S)-piperidin-4-yl 2-(((((2R,3S,4R,5S)-5-(4-aminopyrrolo[2,1-f][1,2,4]triazin-7-yl)-2-cyano-3,4-dihydroxytetrahydrofuran-2-yl)methoxy)(phenoxy)phosphoryl)amino)propanoate] | > 100 | 2.9 | 46.2 | > 5 | – | – | – | – | – | – | – |
| CC[C@H](N[P@@](=O)(OC[C@@]1(C#N)O[C@@H](c2ccc3c(N)ncnn23)[C@H](O)[C@@H]1O)Oc1ccccc1)C(=O)OC1CCCCC1 [Example 104] | – | – | – | – | > 50 | 0.79 | 1.8 | 0.368 | – | – | – |
| N#C[C@]1(COP(=O)(NCC(=O)OC2CCCC2)Oc2ccccc2)O[C@@H](c2ccc3c(N)ncnn23)[C@H](O)[C@@H]1O (single isomer, unassigned) [Example 114] | – | – | – | – | > 50 | 0.974 | 4.7 | 0.255 | – | – | – |
| C[C@H](NP(=O)(OC[C@@]1(C#N)O[C@@H](c2ccc3c(N)ncnn23)[C@H](O)[C@@H]1O)Oc1ccccc1)C(=O)OCC(CO)CO (stereo partly drawn) [Example 245, 3-hydroxy-2-(hydroxymethyl)propyl ((((2R,3S,4R,5S)-5-(4-aminopyrrolo[2,1-f][1,2,4]triazin-7-yl)-2-cyano-3,4-dihydroxytetrahydrofuran-2-yl)methoxy)(phenoxy)phosphoryl)-L-alaninate] | > 50 | 3.79 | 29 | > 5 | – | – | – | – | – | – | – |
| C[C@H](NP(=O)(OC[C@@]1(C#N)O[C@@H](c2ccc3c(N)ncnn23)[C@H](O)[C@@H]1O)Oc1ccccc1)C(=O)OC1CCOCC1 (stereo partly drawn) [Example 55, tetrahydro-2H-pyran-4-yl ((((2R,3S,4R,5S)-5-(4-aminopyrrolo[2,1-f][1,2,4]triazin-7-yl)-2-cyano-3,4-dihydroxytetrahydrofuran-2-yl)methoxy)(phenoxy)phosphoryl)-L-alaninate] | > 50 | 0.57 | 6.91 | 4.29 | – | – | – | – | – | – | – |
| C[C@H](NP(=O)(N[C@@H](C)C(=O)OCC1CCC1)OC[C@@]1(C#N)O[C@@H](c2ccc3c(N)ncnn23)[C@H](O)[C@@H]1O)C(=O)OCC1CCC1 [Example 36, (2R,3S,4R,5S)-5-(4-aminopyrrolo[2,1-f][1,2,4]triazin-7-yl)-2-cyano-3,4-dihydroxytetrahydrofuran-2-yl)methyl bis-cyclobutylmethyl L-alaninate phosphate] | – | – | – | – | – | – | 10.7 | – | > 50 | 1.44 | 0.312 |
| CCC(CC)COC(=O)[C@H](CC1CC1)NP(=O)(OC[C@@]1(C#N)O[C@@H](c2ccc3c(N)ncnn23)[C@H](O)[C@@H]1O)Oc1ccccc1 (stereo partly drawn) [Example 132, (2S)-2-ethylbutyl 2-(((((2R,3S,4R,5S)-5-(4-aminopyrrolo[2,1-f][1,2,4]triazin-7-yl)-2-cyano-3,4-dihydroxytetrahydrofuran-2-yl)methoxy)(phenoxy)phosphoryl)amino)-3-cyclopropylpropanoate] | 44.6 | 1.99 | 22.4 | 0.523 | – | – | – | – | – | – | – |
| CCC(CC)OC(=O)[C@H](CC)NP(=O)(OC[C@@]1(C#N)O[C@@H](c2ccc3c(N)ncnn23)[C@H](O)[C@@H]1O)Oc1ccccc1 (mixture of isomers) [Example 115, (2S)-pentan-3-yl 2-(((((2R,3S,4R,5S)-5-(4-aminopyrrolo[2,1-f][1,2,4]triazin-7-yl)-2-cyano-3,4-dihydroxytetrahydrofuran-2-yl)methoxy)(phenoxy)phosphoryl)amino)butanoate] | > 50 | 8.66 | 10.3 | 1.55 | – | – | – | – | – | – | – |
| C[C@@H](NP(=O)(OC[C@@]1(C#N)O[C@@H](c2ccc3c(N)ncnn23)[C@H](O)[C@@H]1O)Oc1ccccc1)C(=O)O[C@@H]1CCN(C(=O)OC(C)(C)C)C1 (stereo partly drawn) [Example 140, (3R)-tert-butyl 3-(((2R)-2-(((((2R,3S,4R,5S)-5-(4-aminopyrrolo[2,1-f][1,2,4]triazin-7-yl)-2-cyano-3,4-dihydroxytetrahydrofuran-2-yl)methoxy)(phenoxy)phosphoryl)amino)propanoyl)oxy)pyrrolidine-1-carboxylate] | > 50 | 8.89 | 23.3 | > 5 | – | – | – | – | – | – | – |
| CCCOC(=O)C(C)NP(=O)(OCC1(C#N)OC(c2ccc3c(N)ncnn23)C(O)C1O)Oc1ccccc1 (single isomer, unassigned) [Example 47] | – | – | – | – | 9.19 | 0.051 | 0.56 | 0.162 | – | – | – |
| C[C@H](NP(=O)(OC[C@@]1(C#N)O[C@@H](c2ccc3c(N)ncnn23)[C@H](O)[C@@H]1O)Oc1ccccc1)C(=O)OC1CCCCCCC1 (stereo partly drawn) [Example 171, cyclooctyl ((((2R,3S,4R,5S)-5-(4-aminopyrrolo[2,1-f][1,2,4]triazin-7-yl)-2-cyano-3,4-dihydroxytetrahydrofuran-2-yl)methoxy)(phenoxy)phosphoryl)-L-alaninate] | 31.5 | 0.22 | 0.582 | 0.375 | – | – | – | – | – | – | – |
| CCCCCOC(=O)C[C@H](N[P@](=O)(OC[C@@]1(C#N)O[C@@H](c2ccc3c(N)ncnn23)[C@H](O)[C@@H]1O)Oc1ccccc1)C(=O)OCCCCC [Example 217] | – | – | – | – | 38 | 1.01 | 4.66 | > 3.51 | – | – | – |
| CCC(CC)COC(=O)[C@@H](C)NP(=O)(OC[C@@]1(C#N)O[C@@H](c2ccc3c(N)ncnn23)[C@H](O)[C@@H]1O)Oc1ccccc1 (single isomer, unassigned) [Example 84] | – | – | – | – | > 50 | 8.07 | 19.9 | 1.13 | – | – | – |
| CC(C)[C@H](NC(=O)OC(C)(C)C)C(=O)OCCNP(=O)(OC[C@@]1(C#N)O[C@@H](c2ccc3c(N)ncnn23)[C@H](O)[C@@H]1O)Oc1ccccc1 (stereo partly drawn) [Example 139, (2S)-2-(((((2R,3S,4R,5S)-5-(4-aminopyrrolo[2,1-f][1,2,4]triazin-7-yl)-2-cyano-3,4-dihydroxytetrahydrofuran-2-yl)methoxy)(phenoxy)phosphoryl)amino)ethyl 2-((tert-butoxycarbonyl)amino)-3-methylbutanoate] | > 50 | 6.43 | 28.3 | 0.103 | – | – | – | – | – | – | – |
| CCCOC(=O)C(C)NP(=O)(OCC1(C#N)OC(c2ccc3c(N)ncnn23)C(O)C1O)Oc1ccccc1 (single isomer, unassigned) [Example 46] | – | – | – | – | > 20.8 | 0.082 | 0.487 | 0.393 | – | – | – |
| C[C@H](NP(=O)(OC[C@@]1(C#N)O[C@@H](c2ccc3c(N)ncnn23)[C@H](O)[C@@H]1O)Oc1ccccc1)C(=O)O[C@H]1CC[C@H](C)CC1 (mixture of isomers) [Example 142, (2S)-(1r,4S)-4-methylcyclohexyl 2-(((((2R,3S,4R,5S)-5-(4-aminopyrrolo[2,1-f][1,2,4]triazin-7-yl)-2-cyano-3,4-dihydroxytetrahydrofuran-2-yl)methoxy)(phenoxy)phosphoryl)amino)propanoate] | 12.2 | 0.251 | 0.164 | 0.061 | – | – | – | – | – | – | – |
| C[C@H](NP(=O)(OC[C@@]1(C#N)O[C@@H](c2ccc3c(N)ncnn23)[C@H](O)[C@@H]1O)Oc1ccccc1)C(=O)O[C@H]1CC[C@H](c2ccccc2)CC1 (stereo partly drawn) [Example 186, trans-4-phenylcyclohexyl ((((2R,3S,4R,5S)-5-(4-aminopyrrolo[2,1-f][1,2,4]triazin-7-yl)-2-cyano-3,4-dihydroxytetrahydrofuran-2-yl)methoxy)(phenoxy)phosphoryl)-L-alaninate] | 60.3 | 2.77 | 4.75 | 0.07 | – | – | – | – | – | – | – |
| CCCCCCCCCCCCCCCCOCCCOC(=O)[C@H](C)NP(=O)(OC[C@@]1(C#N)O[C@@H](c2ccc3c(N)ncnn23)[C@H](O)[C@@H]1O)Oc1ccccc1 (stereo partly drawn) [Example 198, 3-(hexadecyloxy)propyl ((((2R,3S,4R,5S)-5-(4-aminopyrrolo[2,1-f][1,2,4]triazin-7-yl)-2-cyano-3,4-dihydroxytetrahydrofuran-2-yl)methoxy)(phenoxy)phosphoryl)alaninate] | 39.1 | 0.618 | 0.548 | 0.037 | – | – | – | – | – | – | – |
| CCC(CC)COC(=O)[C@H](CC(C)C)NP(=O)(OC[C@@]1(C#N)O[C@@H](c2ccc3c(N)ncnn23)[C@H](O)[C@@H]1O)Oc1ccccc1 (single isomer, unassigned) [Example 129] | 26.7 | – | 41.6 | – | – | 42.9 | – | > 5 | – | – | – |
